Test results reported in patent US8940310B2, “Methods of treatment using TLR7 and/or TLR9 inhibitors” (Dynavax Technologies Corporation, priority 2010, dated 2015).

Key:
[1] = test system: TLR7 and TLR9; experiment: Type I IFN-regulated genes in spleens of lupus-prone mice (Taqman); assay type: in vivo, mouse; conditions: (NZBxNZW)F1 and TLR7.Tg.6, IRS 100 μg s.c. every 3 days for 10 days
Experimental: (A) (NZBxNZW)F1 mice were treated as described in FIG. 16 but when mice received IRS, different doses of GC were used (in mg per mouse here) (B) (NZBxNZW)F1 and (C) TLR7.Tg.6 mice were left untreated or treated with IRS (100 μg/mice s.c) every 3 days for 10 days and spleens were harvested 18 hr after the last IRS injection. RNA was prepared from the spleens of the animals and the levels of type I IFN-regulated genes were measured by quantitative analysis (Taqman). Averages±standard error of the mean for n=6-10 mice per group.
PCR reactions were performed as described previously (Barrat et al., 2005). In brief, RNA was extracted from collagenase D-treated splenocyte suspensions with Qiagen RNA and cDNA was generated with SuperScript First-Strand Synthesis System (Invitrogen). ECT was threshold cycle (CT) values for each gene were normalized to the housekeeping genes ubiquitin or β-actin using the formula Eq. 1.8(HSKGENE) (100,000), where HSK is the mean CT of triplicate housekeeping gene runs, GENE is the mean CT of duplicate runs of the gene of interest, and 100,000 is arbitrarily chosen as a factor to bring all values above 0.

[2] = test system: TLR7 and TLR9; experiment: Tape stripping skin injury in 129 mice; assay type: in vivo; conditions: 24 hr
Experimental: C57BL/6 and 129 mice were purchased from Charles River Laboratories. (NZBxNZW)F1 female mice were purchased from Jackson Laboratories and used at 18-22 weeks of age. MyD88/KO and TLR9/KO mouse colonies were maintained at Simonsen Laboratories and used with age matched C57BL/6 wild type controls at 8-12 weeks of age. Tape stripping was performed after shaving the dorsal area (3×3 cm) using 10 strokes with duct tape. IRS was administered just before tape stripping SC at a distant site. Alternatively, in (NZBxNZW)F1 mice, IRS was administered long term. In certain experiments PDC and neutrophils were depleted with 250 μg of antibody given IP at day −2 and day 0, eight hours before tape stripping. Anti-120G8 (Imgenex) was used for depletion of PDC (Asselin-Paturel et al., 2003), and anti-GR1-LY6G (clone 1A8; Biolegend) was used for depletion of neutrophils (Daley et al., 2008). […] Percentage of area with open lesions in (NZBxNZW)F1 and normal mice was evaluated with Nikon software NIS-elements.
For analysis of cellular infiltrate mice were sacrificed 24 hr later and epidermis and derma were mechanically separated followed by enzymatic digestion with 0.28 U/ML of Liberase 3 (Roche) for 20 minutes at 37° C., passed trough a 70 μm filter washed in RPMI without serum, counted and stained for flow cytometric analyses. […]

Substance: 5′-TGCTCCTGGAGGGGTTGT-3′ (DNA, backbone not given here) [SEQ ID NO:42]
- expression of IFN-regulated genes [1]: reduced the expression of IFN-regulated genes but not TNF-α
- expression of IFN-α regulated and pro-inflammatory genes in skin ([2]; 100 μg s.c. before tape stripping): significantly reduced the expression of both IFN-α regulated genes and pro-inflammatory genes
- infiltration of cells including PDC and neutrophils [2]: no measurable effect on infiltration of cells
